pEC50: −log10 of the molar value.
Biological target: human mGluR2 (Homo sapiens (Human), UniProt Q14416)
Assay: MGluR2 cAMP assay
Type: cell-based
Conditions: HEK293 cells clonally expressing human mGluR2, 1 μM forskolin, 1 μM LY-341495
Procedure: Clonally expressed human mGluR2 in HEK293 background was glutamate starved overnight in media without glutamine (GIBCO MEM 12360), containing 10% FBS, 1% penicillin streptomycin.
On the day of the assay, media was removed, cells washed with PBS, cells harvested and pelleted by centrifugation. Cell pellets were resuspended in stimulation buffer without forskolin and counted. A solution of 1.25×10^6 cells/ml was prepared and dispensed to plates using a Combi liquid handler (Thermo). A standard curve was created using a top concentration of cAMP of 1 μM in the stimulation buffer, 1:3 dilutions over 14 points in the absence of cells. Plates were read by time-resolved fluorescence at […] and a ratio was calculated via in house software, (665 nM/618 nM)*10^4. In house software converted the fluorescence value ratios to units of cAMP concentration, which is then used to calculate % inhibition for each test compound.
Compounds were added to white, standard volume 384 non-binding surface plates (Corning 3574). Cells were resuspended in stimulation buffer consisting of Hanks Balanced Salt Solution (14175-095) pH 7.0, 20 mM HEPES, 2.0 mM CaCl2, 5.0 mM MgCl2, and 1 mM IBMX (Sigma 15879), 1 μM forskolin, and 1 μM LY-341495, for 30 minutes. Buffer without forskolin was used as a negative control. Solutions of D2 and cryptate detection reagents from the CISBIO dynamic cAMP kit (62AM4PEJ) were diluted 1:40 in lysis buffer. Lysis buffer consisted of 50 mM Phosphate Buffer pH 7.0, 800 mM Potassium Fluoride, 0.2% BSA, and 1.0% Triton. Assay reaction was terminated by addition of detection reagents in lysis buffer. One hour later, plates were read on a PE Viewlux. Data was extracted, and concentration response curves generated by fitting the data to a standard 4 parameter logistic equation from which EC50 values were determined See table 1: A: <10 nM; B: 10-100 nM; C: 100-1000 nM; D: 1000-10000 nM.

human mGluR2, sequence (Q14416 19-872): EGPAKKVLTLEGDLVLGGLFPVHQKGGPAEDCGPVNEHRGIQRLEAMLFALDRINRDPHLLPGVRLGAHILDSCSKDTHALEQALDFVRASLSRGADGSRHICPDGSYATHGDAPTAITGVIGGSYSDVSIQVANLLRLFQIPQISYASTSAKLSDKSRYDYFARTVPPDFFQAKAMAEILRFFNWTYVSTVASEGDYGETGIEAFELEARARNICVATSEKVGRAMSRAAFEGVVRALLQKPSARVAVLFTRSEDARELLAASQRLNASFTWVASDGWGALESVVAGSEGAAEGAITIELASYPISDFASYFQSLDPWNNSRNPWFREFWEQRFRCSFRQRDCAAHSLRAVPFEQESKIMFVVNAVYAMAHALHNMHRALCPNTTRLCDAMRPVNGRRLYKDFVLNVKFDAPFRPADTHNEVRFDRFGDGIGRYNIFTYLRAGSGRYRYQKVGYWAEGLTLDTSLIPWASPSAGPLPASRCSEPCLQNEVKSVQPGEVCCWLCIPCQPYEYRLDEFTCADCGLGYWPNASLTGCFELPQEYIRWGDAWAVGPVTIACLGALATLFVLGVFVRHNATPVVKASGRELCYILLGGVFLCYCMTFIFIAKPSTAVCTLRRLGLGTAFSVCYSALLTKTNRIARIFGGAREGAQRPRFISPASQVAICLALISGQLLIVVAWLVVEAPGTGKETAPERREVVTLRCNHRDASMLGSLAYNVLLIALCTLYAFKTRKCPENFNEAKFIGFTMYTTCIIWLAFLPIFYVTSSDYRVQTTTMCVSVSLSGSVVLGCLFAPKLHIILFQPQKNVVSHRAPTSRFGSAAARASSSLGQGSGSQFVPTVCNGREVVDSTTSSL

| Structure (SMILES) | pEC50 |
| --- | --- |
| Fc1ccccc1C1CCN(c2cnn3c(CC4CC4)nnc3c2Cl)CC1 [Example 23, 8-Chloro-3-(cyclopropylmethyl)-7-(4-(2-fluorophenyl)piperidin-1-yl)-[1,2,4]triazolo[4,3-b]pyridazine] | 7.89 |
| Clc1cc(Cl)cc(C2CCN(c3cnn4c(CC5CC5)nnc4c3Cl)CC2)c1 [Example 47, 8-Chloro-3-(cyclopropylmethyl)-7-(4-(3,5-dichlorophenyl)piperidin-1-yl)-[1,2,4]triazolo[4,3-b]pyridazine] | 6.84 |
| Clc1c(NCC2Cc3ccccc3C2)cnn2c(CC3CC3)nnc12 [Example 33, 8-Chloro-3-(cyclopropylmethyl)-N-((2,3-dihydro-1H-inden-2-yl)methyl)-[1,2,4]triazolo[4,3-b]pyridazin-7-amine] | 7.68 |
| COc1ccc(C2CCN(c3cnn4c(CC(F)(F)F)nnc4c3Cl)CC2)c(OC)c1 [Example 38, 8-Chloro-7-(4-(2,4-dimethoxyphenyl)piperidin-1-yl)-3-(2,2,2-trifluoroethyl)-[1,2,4]triazolo[4,3-b]pyridazine] | 8.30 |
| COc1c(N2CCC(c3ccc(F)cc3)CC2)ncn2c(CC(C)(C)C)nnc12 [Example 13, 7-(4-(4-Fluorophenyl)piperidin-1-yl)-8-methoxy-3-neopentyl-[1,2,4]triazolo[4,3-c]pyrimidine] | 6.54 |
| COc1cccc(F)c1C1CCN(c2cnn3c(CC4CC4)nnc3c2C(F)(F)F)CC1 [Example 71, 3-(Cyclopropylmethyl)-7-(4-(2-fluoro-6-methoxyphenyl)piperidin-1-yl)-8-(trifluoromethyl)-[1,2,4]triazolo[4,3-b]pyridazine] | 8.40 |
| Clc1c(N2CCC(c3ccccc3)CC2)cnn2c(Cc3ccccc3)nnc12 [Example 57, 3-Benzyl-8-chloro-7-(4-phenylpiperidin-1-yl)-[1,2,4]triazolo[4,3-b]pyridazine] | 6.66 |
| Fc1ccc(C2CCN(c3cnn4c(CC5CC5)nnc4c3Cl)CC2)cc1 [Example 17, 8-Chloro-3-(cyclopropylmethyl)-7-(4-(4-fluorophenyl)piperidin-1-yl)-[1,2,4]triazolo[4,3-b]pyridazine] | 7.34 |
| COc1c(F)ccc(F)c1C1CCN(c2cnn3c(CC(F)(F)F)nnc3c2C(F)(F)F)CC1 [Example 81, 7-(4-(3,6-Difluoro-2-methoxyphenyl)piperidin-1-yl)-3-(2,2,2-trifluoroethyl)-8-(trifluoromethyl)-[1,2,4]triazolo[4,3-b]pyridazine] | 9.40 |
| COc1c(N2CCC(c3ccccc3)CC2)ncn2c(CC3CC3)nnc12 [Example 3, 3-(Cyclopropylmethyl)-8-methoxy-7-(4-phenylpiperidin-1-yl)-[1,2,4]triazolo[4,3-c]pyrimidine] | 6.27 |
| FC(F)(F)c1c(N2CCC(c3ccccc3)CC2)ncn2c(CC3CC3)nnc12 [Example 4, 3-(Cyclopropylmethyl)-7-(4-phenylpiperidin-1-yl)-8-(trifluoromethyl)-[1,2,4]triazolo[4,3-c]pyrimidine] | 7.16 |
| N#Cc1ccccc1C1CCN(c2cnn3c(CC4CC4)nnc3c2Cl)CC1 [Example 72, 2-(1-(8-Chloro-3-(cyclopropylmethyl)-[1,2,4]triazolo[4,3-b]pyridazin-7-yl)piperidin-4-yl)benzonitrile] | 7.82 |
| Fc1ccc(F)c(C2CCN(c3cnn4c(CC(F)(F)F)nnc4c3Cl)CC2)c1OC(F)F [Example 51, 8-Chloro-7-(4-(2-(difluoromethoxy)-3,6-difluorophenyl)piperidin-1-yl)-3-(2,2,2-trifluoroethyl)-[1,2,4]triazolo[4,3-b]pyridazine] | 8.52 |
| COC(=O)c1ccccc1C1CCN(c2cnn3c(CC(F)(F)F)nnc3c2Cl)CC1 [Example 32, Methyl 2-(1-(8-chloro-3-(2,2,2-trifluoroethyl)-[1,2,4]triazolo[4,3-b]pyridazin-7-yl)piperidin-4-yl)benzoate] | 7.82 |

Source: patent US9682980B2, “Positive allosteric modulators of mGluR2” (BRISTOL-MYERS SQUIBB COMPANY, priority 2012, dated 2017)
